In US9963463B2, “Urea-substituted indanes as P38 map kinase inhibitors” (TORRENT PHARMACEUTICALS LIMITED, priority 2014, dated 2018):

Biological target: T1, purified recombinant human p38 alpha MAPK (Homo sapiens, UniProt Q16539)
T1 construct: purchased Millipore, USA
Experiment: Inhibition of p38 alpha MAPK activity, TR-FRET kinase assay
Format: biochemical
Conditions: Concentration 1 μM; for inhibition at 1 µM: read-out: P38α Inhibition
Protocol: Inhibition of p38 Alpha MAPK Activity: Time-Resolved Fluorescence Resonance Energy Transfer Kinase Standard Assay (TR-FRET Assay)
Compounds of present invention at various concentrations were premixed with DMSO. The experiment was initiated by mixing 0.5%-1.0% DMSO as vehicle/compounds with purified recombinant human p38 alpha MAPK (Millipore, USA) in the wells and 15 min incubation at room temperature. Thereafter, 30 nM of Biotinylated GST-ATF2 (Activation transcription Factor2) and 100 μM of ATP were added in to the wells containing reaction mixture, followed by reincubation for 60 minutes at RT. Reaction was terminated by addition of 10 mM of EDTA and detection reagent containing anti-phosphotheronine ATF2 antibody (PerkinElmer®, USA) labeled with europium chelate and APC (Allophycocyanin) labeled streptavidin, into the reaction mixture which was further incubated for 60 minutes at room temperature. The degree of phosphorylation of the substrate (GST-ATF2) was measured using Envision multimode reader (PerkinElmer®). Percentage inhibition of p38 kinase activity was calculated by determining ratio of specific europium 665 nm energy transfer signal to reference 615 nm signal.

T1 sequence (Q16539 whole entry): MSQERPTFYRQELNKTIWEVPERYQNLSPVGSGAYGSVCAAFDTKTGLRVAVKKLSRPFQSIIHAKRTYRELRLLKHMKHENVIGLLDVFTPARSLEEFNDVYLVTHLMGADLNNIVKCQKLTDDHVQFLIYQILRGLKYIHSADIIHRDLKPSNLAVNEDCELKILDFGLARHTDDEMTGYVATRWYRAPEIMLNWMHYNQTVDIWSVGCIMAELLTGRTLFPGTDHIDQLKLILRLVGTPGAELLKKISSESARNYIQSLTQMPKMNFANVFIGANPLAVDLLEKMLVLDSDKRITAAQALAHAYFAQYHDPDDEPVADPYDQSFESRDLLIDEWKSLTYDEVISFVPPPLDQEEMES

inhibition at 1 µM [%]	P38α Inhibition	Structure (SMILES)
80 to 100	–	CC(C)(C)c1cc(NC(=O)Nc2ccc(OCC(=O)N3CCn4c(nnc4-c4ccccc4SCCN4CCOCC4)C3)c3c2CCC3)n(-c2ccccc2)n1 [Compound 11, 1-(3-tert-butyl-1-phenyl-1H-pyrazol-5-yl)-3-(7-(2-[3-(2-{[2(morpholin-4-yl)ethyl]sulfanyl}phenyl)-5,6-dihydro[1,2,4]triazolo[4,3-a]pyrazin-7(8H)-yl]-2-oxoethoxy}-2,3-dihydro-1H-inden-4-yl)urea]
60 to 80	–	COc1c(NC(=O)Nc2ccc(OCCCN3CCN(CC4CC4)C(=O)C3)c3c2CCC3)cc(C(C)(C)C)cc1NS(C)(=O)=O [Compound 41, N-(5-tert-butyl-3-{[(7-{3-[4-(cyclopropylmethyl)-3-oxopiperazin-1-yl]propoxy}-2,3-dihydro-1H-inden-4-yl)carbamoyl]amino}-2-methoxyphenyl) methanesulfonamide]
40 to 60	–	COc1cc(-n2nc(C(C)(C)C)cc2NC(=O)Nc2ccc(OCCN3CCN(CC4CC4)C(=O)C3)c3c2CCC3)cc(OC)c1OC [Compound 70, 1-[3-tert-butyl-1-(3,4,5-trimethoxyphenyl)-1H-pyrazol-5-yl]-3-(7-{2-[4-(cyclopropylmethyl)-3-oxopiperazin-1-yl]ethoxy}-2,3-dihydro-1H-inden-4-yl)urea]
80 to 100	–	CSc1ccccc1-c1nnc2n1CCN(CCOc1ccc(NC(=O)Nc3cc(C(C)(C)C)nn3-c3ccc(O)c(Cl)c3)c3c1CCC3)C2 [Compound 24, 1-[3-tert-butyl-1-(3-chloro-4-hydroxyphenyl)-1H-pyrazol-5-yl]-3-[7-(2-{3-[2-(methylsulfanyl)phenyl]-5,6-dihydro[1,2,4]triazolo[4,3-a]pyrazin-7(8H)-yl}ethoxy)-2,3-dihydro-1H-inden-4-yl]urea]
80 to 100	–	CSc1ccccc1-c1nnc2n1CCN(C(=O)COc1ccc(NC(=O)Nc3cc(C(C)(C)C)nn3-c3ccccc3)c3c1CCC3)C2 [Compound 7, 1-(3-tert-butyl-1-phenyl-1H-pyrazol-5-yl)-3-[7-(2-{3-[2-(methylsulfanyl)phenyl]-5,6-dihydro[1,2,4]triazolo[4,3-a]pyrazin-7(8H)-yl}-2-oxoethoxy)-2,3-dihydro-1H-inden-4-yl]urea]
80 to 100	–	CCCSc1ccccc1-c1nnc2n1CCN(CCOc1ccc(NC(=O)Nc3cc(C(C)(C)C)nn3-c3ccc(C)cc3)c3c1CCC3)C2 [Compound 33, 1-[3-tert-butyl-1-(4-methylphenyl)-1H-pyrazol-5-yl]-3-[7-(2-{3-[2-(propylsulfanyl)phenyl]-5,6-dihydro[1,2,4]triazolo[4,3-a]pyrazin-7(8H)-yl}ethoxy)-2,3-dihydro-1H-inden-4-yl]urea]
20 to 40	–	CC(C)(C)c1cc(NC(=O)Nc2ccc(OCCN3CCn4c(nnc4C4CCCCC4)C3)c3c2CCC3)n(-c2ccc(O)c(Cl)c2)n1 [Compound 65, 1-[3-tert-butyl-1-(3-chloro-4-hydroxyphenyl)-1H-pyrazol-5-yl]-3-{7-[2-(3-cyclohexyl-5,6-dihydro[1,2,4]triazolo[4,3-a]pyrazin-7(8H)-yl)ethoxy]-2,3-dihydro-1H-inden-4-yl}urea]
80 to 100	–	Cc1ccc(-n2nc(C(C)(C)C)cc2NC(=O)Nc2ccc(OCCN3CCn4c(nnc4-c4cc(Cl)ccc4O)C3)c3c2CCC3)cc1 [Compound 38]
80 to 100	–	CSc1ccccc1-c1nnc2n1CCN(C(=O)COc1ccc(NC(=O)Nc3cc(C(C)(C)C)nn3-c3ccc(O)c(Cl)c3)c3c1CCC3)C2 [Compound 9, 1-[3-tert-butyl-1-(3-chloro-4-hydroxyphenyl)-1H-pyrazol-5-yl]-3-[7-(2-{3-[2-(methylsulfanyl)phenyl]-5,6-dihydro[1,2,4]triazolo[4,3-a]pyrazin-7(8H)-yl}-2-oxoethoxy)-2,3-dihydro-1H-inden-4-yl]urea]
–	+++++ (+++++ = Inhibition ≥80% ≥ 100%)	COc1ccccc1-c1nnc2n1CCN(CCOc1ccc(NC(=O)Nc3cc(C(C)(C)C)nn3-c3ccc(O)c(Cl)c3)c3c1CCC3)C2 [Compound 25, 1-[3-tert-buty1-1-(3-chloro-4-hydroxyphenyl)-1H-pyrazol-5-yl]-3-(7-{2-[3-(2-methoxyphenyl)-5,6-dihydro[1,2,4]triazolo[4,3-a]pyrazin-7(8H)-yl]ethoxy}-2,3-dihydro-1H-inden-4-yl)urea]
< 20	–	CC(=O)Nc1cc2c(s1)CCN(C(=O)COc1ccc(NC(=O)Nc3cc(C(C)(C)C)nn3-c3ccc(C4CCCCC4)cc3)c3c1CCC3)C2 [Compound 55, N-[5-({[7-({[3-tert-butyl-1-(4-cyclohexylphenyl)-1H-pyrazol-5-yl]carbamoyl}amino)-2,3-dihydro-1H-inden-4-yl]oxy}acetyl)-4,5,6,7-tetrahydrothieno[3,2-c]pyridin-2-yl]acetamide]
80 to 100	–	Cc1ccc(-n2nc(C(C)(C)C)cc2NC(=O)Nc2ccc(OCCN3CCn4c(nnc4-c4cccc(O)c4)C3)c3c2CCC3)cc1 [Compound 36, 1-[3-tert-butyl-1-(4-methylphenyl)-1H-pyrazol-5-yl]-3-(7-{2-[3-(3-hydroxyphenyl)-5,6-dihydro[1,2,4]triazolo[4,3-a]pyrazin-7(8H)-yl]ethoxy}-2,3-dihydro-1H-inden-4-yl)urea]
80 to 100	–	COc1ccccc1-c1nnc2n1CCN(C(=O)COc1ccc(NC(=O)Nc3cc(C(C)(C)C)nn3-c3ccccc3)c3c1CCC3)C2 [Compound 5, 1-(3-tert-butyl-1-phenyl-1H-pyrazol-5-yl)-3-(7-{2-[3-(2-methoxyphenyl)-5,6-dihydro[1,2,4]triazolo[4,3-a]pyrazin-7(8H)-yl]-2-oxoethoxy}-2,3-dihydro-1H-inden-4-yl)urea]
20 to 40	–	COc1c(NC(=O)Nc2ccc(OCCN3CCN(CC4CC4)C(=O)C3)c3c2CCC3)cc(C(C)(C)C)cc1NC(=O)C1CC1 [Compound 64, N-(5-tert-butyl-3-{[(7-{2-[4-(cyclopropylmethyl)-3-oxopiperazin-1-yl]ethoxy}-2,3-dihydro-1H-inden-4-yl)carbamoyl]amino}-2-methoxyphenyl)cyclopropanecarboxamide]
60 to 80	–	CC(=O)Nc1cc2c(s1)CCN(C(=O)COc1ccc(NC(=O)Nc3cc(C(C)(C)C)nn3-c3ccc(C)cc3)c3c1CCC3)C2 [Compound 52, N-[5-({[7-({[3-tert-butyl-1-(4-methylphenyl)-1H-pyrazol-5-yl]carbamoyl}amino)-2,3-dihydro-1H-inden-4-yl]oxy}acetyl)-4,5,6,7-tetrahydrothieno[3,2-c]pyridin-2-yl] acetamide]
80 to 100	–	CC(C)(C)c1cc(NC(=O)Nc2ccc(OCCN3CCN(CC4CC4)C(=O)C3)c3c2CCC3)n(-c2ccc(O)cc2)n1 [Compound 18, 1-[3-tert-butyl-1-(4-hydroxyphenyl)-1H-pyrazol-5-yl]-3-(7-{2-[4-(cyclopropylmethyl)-3-oxopiperazin-1-yl]ethoxy}-2,3-dihydro-1H-inden-4-yl)urea]
80 to 100	–	Cc1ccc(-n2nc(C(C)(C)C)cc2NC(=O)Nc2ccc(OCCN3CCn4c(nnc4-c4ccc(O)cc4O)C3)c3c2CCC3)cc1 [Compound 37, 1-[3-tert-butyl-1-(4-methylphenyl)-1H-pyrazol-5-yl]-3-(7-{2-[3-(2,4-dihydroxyphenyl)-5,6-dihydro[1,2,4]triazolo[4,3-a]pyrazin-7(8H)-yl]ethoxy}-2,3-dihydro-1H-inden-4-yl)urea]
